Like-named read-outs stand apart in the source and are kept apart here. Blank lines part the entries; values can stand above or below the molecule they belong to. Where a SMILES comes first, the peptide text is derived from it. The star is where a group is joined. Cbz = O=C(OCc1ccccc1)*
Columns and labels:
CRBN-DDB1 complex [1] = target: T1, CRBN-DDB1 complex (Homo sapiens, UniProt Q96SW2); experiment: fluorescence polarization (FP) assay, binding with the CRBN-DDB1 complex; settings: single concentration of 1 μM; for binding to CRBN-DDB1 complex in FP assay (relative binding affinity): tested three times, conditions adjusted to around 84% of maximum signal for 1 μM lenalidomide
Description: All analogs were tested at a single concentration of 1 μM three times.

BRD4 in MV4; 11 cells = BRD4 in MV4; 11 cells (Homo sapiens, UniProt O60885); experiment: Western blot of BRD4 in MV4; 11 cells (time course, dose response, mechanism); format: cell-based; settings: for effect of 1 h pretreatment on BRD4 degradation induced by 13: pretreated 1 h, then 13 for 3 h
Excerpt: We next verified the mechanism of action of degrader 13 (FIGS. 8G-8H).

[2] = in human blood; cited from earlier work
[3] = in-vivo in humans; cited from earlier work
CRBN-DDB1 complex [4] = target: T1, CRBN-DDB1 complex; experiment: fluorescence polarization (FP) assay, binding with the CRBN-DDB1 complex
MV4; 11 cells [5] = experiment: flow cytofluorimetric apoptosis analysis; format: cell-based, human; settings: 48 h
Description: (§1) FIGS. 9A-9D. Functional studies of the PROTACs including anti-proliferation, apoptosis, G1 phase arrest, and reduced population in S phase. (FIG. 9A) AlamarBlue™ Cell Viability. […] (FIG. 9B) MV4; 11 cells were treated by indicated dosage of 13 for 48 h followed by flow cytofluorimetric cell cycle analysis. (FIGS. 9C and 9D) MV4; 11 cells were treated by indicated dosage of 13 for 48 h followed by flow cytofluorimetric apoptosis analyses.
(§2) Flow Cytometry Cell apoptosis and cell cycle were detected by Attune Flow cytometer (Thermo Fisher). Cells were seeded in a 6-well plate and treated with the indicated concentrations of compounds for 48 h. For samples for cell apoptosis detection, cells were harvested and incubated in Annexin V-FITC and PI reagents each for 15 minutes (Annexin V-FITC apoptosis detection kit, Invitrogen). For the samples for cell cycle detection, cells were fixed in 70% cold ethanol overnight and stained with PI (500 μg/ml) for 15 minutes. Flow data were analyzed using Flowjo software.

caspase 3 cleavage = experiment: Western blot of caspase 3 and cleaved caspase 3 in MV4; 11 cells; settings: at 10 nm to 10 µM concentrations
MV4; 11 cells [6] = experiment: flow cytofluorimetric cell cycle analysis; format: cell-based, human; settings: 48 h
Description: as §1, §2

[7] = stability in human liver microsomes (hLM); format: in vitro ADME; settings: after 0.5 h
[8] = stability in phosphate buffer with different pHs; format: physicochemical; settings: phosphate buffer pH 1.0, after 24 h
Excerpt: (§3) Under acidic conditions, all compounds are very stable.

[9] = stability in human plasma (hP); format: in vitro ADME; settings: after 4.0 h
Excerpt: as §3

[10] = stability in phosphate buffer with different pHs; format: physicochemical; settings: for PB7.4, percent compound remaining: phosphate buffer pH 7.4, after 24 h, 37° C.
MV4; 11 cells [11] = experiment: AlamarBlue cell viability; format: cell-based, human; settings: 72 h
Description: as §1
AlamarBlue Cell Viability Cells were seeded in a 96-well plate at a density of 5000-10000 cells in 100 μl media per well and treated with DMSO control or test compounds at indicated doses. After incubated in CO2 incubator for 72 hours, cells were treated with 10 μL AlamarBlue solution ([…])). Fluorescence was measured in a plate reader with an excitation wavelength at 530-560 nm and emission wavelength at 590 nm. The fluorescence was normalized to the DMSO-treated cells, and the IC50 was calculated using GraphPad Prism 9 software.

[12] = phosphate buffer pH 8.8, after 24 h

T1 sequence (Q96SW2 whole entry): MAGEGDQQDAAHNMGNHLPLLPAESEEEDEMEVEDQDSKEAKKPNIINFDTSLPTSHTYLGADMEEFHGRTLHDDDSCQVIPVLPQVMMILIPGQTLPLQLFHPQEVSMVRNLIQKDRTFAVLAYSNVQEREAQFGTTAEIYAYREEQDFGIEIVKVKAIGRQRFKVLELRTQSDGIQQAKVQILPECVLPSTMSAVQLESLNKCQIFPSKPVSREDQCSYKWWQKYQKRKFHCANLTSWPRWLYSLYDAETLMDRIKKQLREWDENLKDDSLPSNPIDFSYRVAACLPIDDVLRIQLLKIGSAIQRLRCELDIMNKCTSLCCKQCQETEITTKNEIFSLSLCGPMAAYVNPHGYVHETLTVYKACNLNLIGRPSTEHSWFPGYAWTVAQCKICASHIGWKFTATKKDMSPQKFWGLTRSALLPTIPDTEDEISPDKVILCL
T1 sequence (Q16531 2-1140 partner limits assumed): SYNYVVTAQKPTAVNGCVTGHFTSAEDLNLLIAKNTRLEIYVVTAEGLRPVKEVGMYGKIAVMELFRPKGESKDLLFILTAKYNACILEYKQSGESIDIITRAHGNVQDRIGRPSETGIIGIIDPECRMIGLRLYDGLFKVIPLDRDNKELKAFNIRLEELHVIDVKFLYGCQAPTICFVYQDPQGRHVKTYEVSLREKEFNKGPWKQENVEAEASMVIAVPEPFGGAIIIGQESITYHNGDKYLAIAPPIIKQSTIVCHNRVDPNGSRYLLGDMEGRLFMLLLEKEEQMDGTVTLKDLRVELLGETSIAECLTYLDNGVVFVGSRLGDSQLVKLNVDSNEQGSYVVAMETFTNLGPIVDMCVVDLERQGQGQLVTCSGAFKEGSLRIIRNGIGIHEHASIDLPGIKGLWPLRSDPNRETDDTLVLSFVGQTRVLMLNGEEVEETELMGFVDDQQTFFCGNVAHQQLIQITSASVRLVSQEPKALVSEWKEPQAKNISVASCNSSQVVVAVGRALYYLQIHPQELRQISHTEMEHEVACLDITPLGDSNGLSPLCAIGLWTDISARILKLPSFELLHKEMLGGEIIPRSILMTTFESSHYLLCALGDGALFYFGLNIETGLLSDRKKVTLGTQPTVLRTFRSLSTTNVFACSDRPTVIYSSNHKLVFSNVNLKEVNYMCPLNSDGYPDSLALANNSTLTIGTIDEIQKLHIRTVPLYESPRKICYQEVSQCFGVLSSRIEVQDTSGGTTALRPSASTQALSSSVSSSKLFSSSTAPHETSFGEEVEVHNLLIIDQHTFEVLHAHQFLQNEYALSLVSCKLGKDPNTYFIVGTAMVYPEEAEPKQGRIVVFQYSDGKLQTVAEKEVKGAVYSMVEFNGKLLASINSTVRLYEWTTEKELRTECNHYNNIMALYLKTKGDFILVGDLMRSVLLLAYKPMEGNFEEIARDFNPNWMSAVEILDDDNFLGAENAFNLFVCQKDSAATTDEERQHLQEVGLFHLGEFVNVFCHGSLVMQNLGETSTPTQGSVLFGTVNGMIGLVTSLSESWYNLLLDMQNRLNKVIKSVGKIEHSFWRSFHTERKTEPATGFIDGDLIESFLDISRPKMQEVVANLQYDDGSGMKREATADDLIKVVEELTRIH

SMILES: O=C1CCN(c2ccccc2Cl)C(=O)N1 [Compound 3E, 1-(2-chlorophenyl)dihydropyrimidine-2,4(1H,3H)-dione]
binding to CRBN-DDB1 complex in FP assay (relative binding affinity) (CRBN-DDB1 complex [1]): 36%

SMILES: Cc1sc2c(c1C)C(c1ccc(Cl)cc1)=N[C@@H](CC(=O)NC1CCN(C(=O)COc3cccc(N4CCC(=O)N(C)C4=O)c3C)CC1)c1nnc(C)n1-2 [Compound 13NT, (S)-2-(4-(4-chlorophenyl)-2,3,9-trimethyl-6H-thieno[3,2-f][1,2,4]triazolo[4,3-a][1,4]diazepin-6-yl)-N-(1-(2-(2-methyl-3-(3-methyl-2,4-dioxotetrahydropyrimidin-1(2H)-yl)phenoxy)acetyl)piperidin-4-yl)acetamide]
BRD4 degradation activity, in words (BRD4 in MV4; 11 cells; several concentrations, 24 h): No degradation activity of BRD4 was observed

SMILES: O=C1CCC(N2C(=O)c3ccccc3C2=O)C(=O)N1 (stereo not shown) [thalidomide]
racemization half-life [2]: ~2.0 h | racemization half-life [3]: ~5.0 h

SMILES: O=C1CCN(c2ccc(O)cc2)C(=O)N1 [Compound 5A, 1-(4-hydroxyphenyl)dihydropyrimidine-2,4(1H,3H)-dione]
binding to CRBN-DDB1 complex in FP assay, in words (CRBN-DDB1 complex [1]): did not improve the binding as much as those on the meta-positions | binding to CRBN-DDB1 complex in FP assay (relative binding affinity) (CRBN-DDB1 complex [1]): 38%

SMILES: Cc1ccccc1N1CCC(=O)NC1=O [Compound 3B, 1-(o-tolyl)dihydropyrimidine-2,4(1H,3H)-dione]
increase of affinity by ortho-Me relative to parent PDHU 2 (CRBN-DDB1 complex [4]; FP assay Kd): about 2.5 times | binding to CRBN-DDB1 complex in FP assay (relative binding affinity) (CRBN-DDB1 complex [1]): 35%

SMILES: O=C1CCN(c2ccccc2O)C(=O)N1 [Compound 3A, 1-(2-hydroxyphenyl)dihydropyrimidine-2,4(1H,3H)-dione]
binding to CRBN-DDB1 complex in FP assay, in words (CRBN-DDB1 complex [1]): almost completely lost the binding affinity

SMILES: O=C1CCN(c2cccc(O)c2)C(=O)N1 [Compound 4A, 1-(3-hydroxyphenyl)dihydropyrimidine-2,4(1H,3H)-dione]
binding to CRBN-DDB1 complex in FP assay (relative binding affinity) (CRBN-DDB1 complex [1]): 57%

SMILES: NS(=O)(=O)OC[C@@H]1C[C@@H](n2ccc3c(N[C@H]4CCc5ccccc54)ncnc32)C[C@@H]1O [MLN4924, reference compound]
effect of 1 h pretreatment on BRD4 degradation induced by 13 (BRD4 in MV4; 11 cells): abolished the BRD4 degradation induced by 13

SMILES: CC(C)(C)OC(=O)COc1ccc(N2CCC(=O)NC2=O)cc1 [Compound 5K, tert-butyl 2-(4-(2,4-dioxotetrahydropyrimidin-1(2H)-yl)phenoxy)acetate]
binding to CRBN-DDB1 complex in FP assay, in words (CRBN-DDB1 complex [1]): did not improve the binding as much as those on the meta-positions

SMILES: Cc1sc2c(c1C)C(c1ccc(Cl)cc1)=N[C@@H](CC(=O)NC1CCN(C(=O)COc3cccc(N4CCC(=O)NC4=O)c3C)CC1)c1nnc(C)n1-2 [Compound 13, (S)-2-(4-(4-chlorophenyl)-2,3,9-trimethyl-6H-thieno[3,2-f][1,2,4]triazolo[4,3-a][1,4]diazepin-6-yl)-N-(1-(2-(3-(2,4-dioxotetrahydropyrimidin-1(2H)-yl)-2-methylphenoxy)acetyl)piperidin-4-yl)acetamide]
cell apoptosis, in words (MV4; 11 cells [5]): induce cell apoptosis in a dose-dependent manner | caspase 3 cleavage, in words (caspase 3 cleavage): successful in inducing caspase 3 cleavage | cell cycle effect, in words (MV4; 11 cells [6]): induce G1 phase arrest, decrease the cell population in S phase

SMILES: CCNC(=O)COc1cccc(N2CCC(=O)NC2=O)c1C [Compound 10, 2-(3-(2,4-dioxotetrahydropyrimidin-1(2H)-yl)-2-methylphenoxy)-N-ethylacetamide]
hLM, percent compound remaining [7]: 100% | PB1.0, percent compound remaining [8]: >99% | PB7.4, percent compound remaining [10]: >99% | PB8.8, percent compound remaining [10, 12]: 95%

SMILES: Nc1cccc2c1CN(C1CCC(=O)NC1=O)C2=O (stereo not shown) [Lenalidomide, lenalidomide, reference compound]
hLM, percent compound remaining [7]: 89% | PB1.0, percent compound remaining [8]: >99% | hP, percent compound remaining [9]: 62% | PB7.4, percent compound remaining [10]: 39% | PB8.8, percent compound remaining ([10]; phosphate buffer pH 8.8, after 2 h): 20% | PB8.8, percent compound remaining [10, 12]: 0%

SMILES: CCc1ccccc1N1CCC(=O)NC1=O [Compound 3D, 1-(2-ethylphenyl)dihydropyrimidine-2,4(1H,3H)-dione]
binding to CRBN-DDB1 complex in FP assay (relative binding affinity) (CRBN-DDB1 complex [1]): 29%

SMILES: Cc1sc2c(c1C)C(c1ccc(Cl)cc1)=N[C@@H](CC(=O)OC(C)(C)C)c1nnc(C)n1-2 [JQ1, reference compound]
anti-proliferation activity, in words (MV4; 11 cells [11]): weaker anti-proliferation activity than 13, but higher activity than compound 13NT

SMILES: CC(C)C[C@@H](C=O)NC(=O)[C@H](CC(C)C)NC(=O)[C@H](CC(C)C)NC(=O)OCc1ccccc1 [MG132, reference compound] (Cbz-Leu-Leu-Leu-aldehyde)
effect of 1 h pretreatment on BRD4 degradation induced by 13 (BRD4 in MV4; 11 cells): abolished the BRD4 degradation induced by 13

SMILES: CC(=O)NCCC#Cc1cccc(N2CCC(=O)NC2=O)c1C [Compound 11, N-(4-(3-(2,4-dioxotetrahydropyrimidin-1(2H)-yl)-2-methylphenyl)but-3-yn-1-yl)acetamide]
hLM, percent compound remaining [7]: 90% | PB1.0, percent compound remaining [8]: >99% | PB7.4, percent compound remaining [10]: >99% | PB8.8, percent compound remaining [10, 12]: 90%

SMILES: Cc1c(OCC(=O)N2CCCCC2)cccc1N1CCC(=O)NC1=O [Compound 9, 1-(2-methyl-3-(2-oxo-2-(piperidin-1-yl)ethoxy)phenyl)dihydropyrimidine-2,4(1H,3H)-dione]
hLM, percent compound remaining [7]: 85% | PB1.0, percent compound remaining [8]: >99% | anti-proliferation activity, in words (MV4; 11 cells [11]): did not show any anti-proliferation activity at up to 100 μM | PB7.4, percent compound remaining [10]: >99% | PB8.8, percent compound remaining [10, 12]: 95% | effect of 1 h pretreatment on BRD4 degradation induced by 13 (BRD4 in MV4; 11 cells): abolished the BRD4 degradation induced by 13

SMILES: CC(C)(C)OC(=O)COc1cccc(N2CCC(=O)NC2=O)c1 [Compound 4K, tert-butyl 2-(3-(2,4-dioxotetrahydropyrimidin-1(2H)-yl)phenoxy)acetate]
binding to CRBN-DDB1 complex in FP assay (relative binding affinity) (CRBN-DDB1 complex [1]): 44%

SMILES: COc1ccccc1N1CCC(=O)NC1=O [Compound 3C, 1-(2-methoxyphenyl)dihydropyrimidine-2,4(1H,3H)-dione]
binding to CRBN-DDB1 complex in FP assay, in words (CRBN-DDB1 complex [1]): decreased the binding

SMILES: CC(C)(C)OC(=O)NCC#Cc1cccc(N2CCC(=O)NC2=O)c1 [Compound 4F, tert-butyl (3-(3-(2,4-dioxotetrahydropyrimidin-1(2H)-yl)phenyl)prop-2-yn-1-yl)carbamate]
binding to CRBN-DDB1 complex in FP assay (relative binding affinity) (CRBN-DDB1 complex [1]): 56%

SMILES: COc1cccc(N2CCC(=O)NC2=O)c1 [Compound 4C, 1-(3-methoxyphenyl)dihydropyrimidine-2,4(1H,3H)-dione]
binding to CRBN-DDB1 complex in FP assay (relative binding affinity) (CRBN-DDB1 complex [1]): 33%

Further lines, results first:

binding to CRBN-DDB1 complex in FP assay, in words (CRBN-DDB1 complex [1]): remain relatively high binding affinity
SMILES: Cc1ccc(Nc2ccccc2)cc1N1CCC(=O)NC1=O [Compound 16B]

binding to CRBN-DDB1 complex in FP assay, in words (CRBN-DDB1 complex [1]): slightly weaker than 15A
SMILES: Cc1ccc(Oc2ccccc2)cc1N1CCC(=O)NC1=O [Compound 15D]

Kd (CRBN-DDB1 complex [4]; FP assay): 170 nM | binding to CRBN-DDB1 complex in FP assay (relative binding affinity) (CRBN-DDB1 complex [1]): 70%
SMILES: Cc1ccc(Oc2ccc(C=O)cc2)cc1N1CCC(=O)NC1=O [Compound 15A]

hLM, percent compound remaining [7]: 87% | PB1.0, percent compound remaining [8]: >99% | hP, percent compound remaining [9]: 97% | PB7.4, percent compound remaining [10]: >99% | PB8.8, percent compound remaining [10, 12]: 93%
SMILES: Cc1c(C#CCNC(=O)OC(C)(C)C)cccc1N1CCC(=O)NC1=O [Compound 6F, tert-butyl (3-(3-(2,4-dioxotetrahydropyrimidin-1(2H)-yl)-2-methylphenyl)prop-2-yn-1-yl)carbamate]

binding to CRBN-DDB1 complex in FP assay, in words (CRBN-DDB1 complex [1]): remain relatively high binding affinity
SMILES: COC(=O)c1cccc(Nc2ccc(C)c(N3CCC(=O)NC3=O)c2)c1 [Compound 16A]

binding to CRBN-DDB1 complex in FP assay (relative binding affinity) (CRBN-DDB1 complex [1]): 81%
SMILES: Cc1ccc(O)cc1N1CCC(=O)NC1=O [Compound 7A, 1-(5-hydroxy-2-methylphenyl)dihydropyrimidine-2,4(1H,3H)-dione]

binding to CRBN-DDB1 complex in FP assay (relative binding affinity) (CRBN-DDB1 complex [1]): 33%
SMILES: O=Cc1ccc(Oc2cccc(N3CCC(=O)NC3=O)c2)cc1 [Compound 15B]

binding to CRBN-DDB1 complex in FP assay (relative binding affinity) (CRBN-DDB1 complex [1]): 21%
SMILES: Cc1c(Oc2ccc(C=O)cc2)cccc1N1CCC(=O)NC1=O [Compound 15C]

From patent US20240261416A1, “SYNTHESIS OF NOVEL CEREBLON E3 LIGASE LIGANDS, COMPOUNDS FORMED THEREBY, AND PHARMACEUTICAL COMPOSITIONS CONTAINING THEM” (Wisconsin Alumni Research Foundation, priority 2023, published 2024)
